“And” between values parts separate entries of the source, which are not always exact repeats. Identical values can stand only once. Like-named read-outs stand apart in the source and are kept apart here.
Experiments:
[1] = One-electron reduction potential by pulse radiolysis; format: physicochemical
Method: One-electron reduction potentials were determined by pulse radiolysis following an established procedure.

[2] = Mouse brain concentrations; format: in vivo; conditions: for concentration at 5 min / concentration at 30 min / concentration at 60 min / Kp at 5 min / Kp at 30 min / Kp at 60 min: female, NMRI, mouse; for Kp at 5 min / Kp at 30 min / Kp at 60 min: read-out: Mean plasma:brain ratio (plasma = 1.00)
Method: Following sacrifice, the cranium of mice was opened and the brain removed. Excess blood was washed from the brain with distilled water and any excess fluid blotted on absorbent paper. The brain was then snap frozen using liquid nitrogen and placed into a suitably labelled container and stored at approximately −70°C, pending analysis. Brains were homogenized and extracted samples were prepared appropriately for analysis via liquid chromatography-mass spectrometry (LC-MS).
BioDynamics Study No: DND/01
Two groups of female mice were dosed as follows:
Number Treatment Dose (mg/kg) Route
All doses are expressed as free base
Intravenous doses were administered into a lateral tail vein using an appropriately sized syringe and 25G needle and the oral formulation by oral gavage using a polypropylene gavage tube. All doses were given as a single bolus dose at a constant dose volume of 10.0 mL/kg.
1.6 Blood sample collection
At each sampling time point, three animals in each treatment group were deeply anaesthetised using isoflurane and blood samples (approximately 1 mL) taken into individual heparinised tubes by cardiac puncture, following which the animals were killed by cervical fracture. Samples were collected at the following times post-dose:
Following collection, the blood samples were centrifuged (approximately 10000 g, 2 min at 4 °C) and the plasma retained as one aliquot at approximately -70°C prior to analysis of test material concentrations at BioDynamics by LC-MS/MS.
1.7 Collection of terminal brain samples
Following collection of the terminal blood sample the cranium of each mouse was carefully opened and the brain removed. Excess blood was washed from the brain with distilled water and any excess fluid blotted on absorbent paper. The brain was then snap frozen using liquid nitrogen and placed into a suitably labelled container and stored frozen at approximately -70°C pending analysis.
All of the plasma samples together with the brains from the 15 minute time point were analysed for concentrations of the test material and its sulfone and sulfoxide metabolites. In addition the brains from the 5 and 30 minute time points for the intravenously treated and the 30 and 60 minute time points for the orally treated animals were analysed for concentrations of Fexinidazole and its sulfone and sulfoxide metabolites using an LC-MS/MS method developed at BioDynamics.
All samples were treated as temperature sensitive. Blood samples were collected onto wet ice, followed by centrifugation at 4 °C. Plasma and brain samples were snap frozen on dry ice (plasma) or liquid nitrogen (brains) prior to long term storage at less than -70 °C pending analysis.

[3] = test system: T. b. gambiense (STIB 930); experiment: In vitro trypanocidal assay (Alamar Blue); format: cell-based, Trypanosoma brucei gambiense; conditions: Trypanosoma brucei, 72 h; read-out: IC50
Method: Parasites were cultured with or without the test article at a concentration of 3×10^4/mL in Minimal Essential Medium, according to Baltz et al., with the following modifications: 0.2 mM 2-mercaptoethanol, 1 mM Na-pyruvate, 0.5 mM hypoxanthine and 15% heat inactivated horse serum at 37°C in 5% CO2 in 96-well microtitre plates for 72 h. 10 µL of Alamar Blue was added for the final 3 h to determine viability. The assay was assessed by reading the fluorescence in each well at an excitation wavelength of 536 nm and at an emission wavelength of 588 nm. The IC50 values were calculated from the sigmoidal inhibition curves. For cytotoxicity, 4×10^4/mL L-6 rat skeletal myoblast cells were used, and incubations and assessments carried out as above.

[4] = Dog 28-day toxicokinetics; format: in vivo; conditions: both sexes, beagle, plasma, po
Method: In the dog repeated-dose toxicokinetic study, fexinidazole was given orally by gavage once a day for 28 days to five (control and high dose) or three (low and mid dose) beagle dogs/sex/dose at the doses of 0 (control group), 50, 200, or 800 mg/kg/day. The control group received the vehicle alone (same as above). Systemic exposure to fexinidazole and of its sulfoxide and sulfone metabolites was evaluated on days 1, 14 and 28 in the same animals used for the toxicological study. Samples were taken at predose, and 30 min, 1, 2, 4, 8 and 24 h after dosing on days 1, 14, and 28, and in addition at 48 and 72 h after treatment on day 28.

hERG = hERG (Homo sapiens, UniProt Q12809); experiment: hERG tail current, patch clamp in HEK 293 cells; conditions: for Residual Current (% of control): 37°C
Method: Formulation and stored at 2-4°C when not in use. When in use Tyrode solution was stored at
CaCl2, 1 MgCl2, 5.5 glucose and 5 HEPES. During the patch-clamp experiments the Tyrode
4.2.4. Storage and Formulation of Internal Solution
The internal solution was stored frozen at – 20°C until the day of use. The composition of
the internal solution was (in mM): 110 K+- aspartate, 23 KCl, 3 MgCl2, 1 EGTA, 5 HEPES,
0.4 GTP (Na+ salt), 5 ATP (Na+ salt), 5 creatine phosphate, 0.4 CaCl2 (pH 7.3 with KOH).
4.3.1. Source and Maintenance of hERG Transfected Cells
HEK 293 cells stably transfected with hERG cDNA, supplied by bSys GmbH Switzerland,
continuously maintained and passaged in sterile culture flasks containing a mixture of
Dulbecco’s modified Eagle’s medium and nutrient mixture F-12 supplemented with 10%
foetal bovine serum, 0.9% Penicillin/Streptomycin solution, Hygromycin B and Blasticidin.
HEK 293 cells were passaged at a confluence of about 80%. For electrophysiology studies,
the cells were seeded in Petri dishes (35x10 mm), with culture medium containing
tetracycline to activate channel expression, at a density that enables isolated cells to be
selected for patch-clamping. The dishes were stored in a humidified, gassed (5% CO2)
Petri dishes containing the cells to be used for electrophysiological studies were mounted on
the stage of an inverted microscope and were superfused with Tyrode solution. Membrane
currents were recorded (Axopatch 200B, Axon Instruments) in the whole cell configuration
by using suction pipettes (Harvard apparatus, 1.5 mm o.d. x 0.86 mm i.d.) with tip resistance
in the range of 2.5-3.5 MΩ. Gigaohm seals were formed between the patch electrodes and
individual cells. If the quality of the seal was judged to be poor, the electrode was replaced
and the process repeated with a different cell. Once a stable patch was achieved, recording
was commenced in voltage-clamp mode, with the cell initially clamped at –80 mV. Series
resistance and capacitance were compensated to about 70% of their initial value. Cells were
perfused through a microperfusion system allowing for solution changes to occur within
approximately one second. Computer software (pClamp version 8.0; Axon Instruments) was
used to generate voltage clamp protocols, acquire data and analyze current traces. The data
were stored on a computer hard disk for later analysis. Experiments were performed at a
temperature in the recording chamber of 37 ± 1°C, which was maintained with a temperature
Cells stably expressing hERG were held at –80 mV. Onset and steady state block of the
hERG channel current (IKr) due to the test items were monitored using a pulse pattern with
fixed amplitudes (first depolarization: -50 mV for 500 ms; second depolarization: +20 mV
for 2 seconds; hyperpolarization: -50 mV for 7 seconds). This pulse pattern was repeated
every 15 seconds, and current amplitude at the onset of the second step to –50 mV (“peak
tail current”) was monitored until a steady state was obtained. Recordings were acquired at
the sampling interval of 2 kHz and low-pass filtered at 1 kHz. The steady state peak tail
current was monitored and recorded in vehicle solution and then the test item was applied to
the bath solution. At the end the reference item E4031 was applied to block 100% of the
current for determination of the current “leak” response to the stimulation protocol. The
current amplitude was continually monitored through the onset of the voltage step to –50
mV until a new steady state level of current was achieved. Each cell was exposed to a single
test substance concentration.
4.5. Statistical Analysis
For each cell the effect of the test items was ascertained by calculating the residual current as
percentage of control (% control). All data were corrected for “leak” current by subtracting
Each value represents the average current
recorded from 3 sequential voltage pulses. Data from individual cells was collected and the

[5] = brain homogenate, oral, 25 mg/kg, fexinidazole 25 mg/kg po, 60 min, read-out: Brain homogenate concentration
[6] = brain, oral, 25 mg/kg, fexinidazole 25 mg/kg po, 30 min, read-out: Brain concentration
[7] = brain, oral, 25 mg/kg, fexinidazole 25 mg/kg po, 30 min, read-out: Brain homogenate concentration
[8] = brain, oral, 25 mg/kg, fexinidazole 25 mg/kg po, 60 min, read-out: Brain concentration
[9] = fexinidazole 25 mg/kg po, 30 min
[10] = fexinidazole 25 mg/kg po, 60 min
[11] = 50 mg/kg/day, 50 mg/kg/day po, day 1
[12] = 50 mg/kg/day, 50 mg/kg/day po, day 1, read-out: AUC0-t(last)
[13] = 50 mg/kg/day, 50 mg/kg/day po, day 14
[14] = 50 mg/kg/day, 50 mg/kg/day po, day 14, read-out: AUC0-t(last)
[15] = 200 mg/kg/day, 200 mg/kg/day po, day 1
[16] = 200 mg/kg/day, 200 mg/kg/day po, day 1, read-out: AUC0-t(last)
[17] = 200 mg/kg/day, 200 mg/kg/day po, day 14
[18] = 200 mg/kg/day, 200 mg/kg/day po, day 14, read-out: AUC0-t(last)
[19] = 800 mg/kg/day, 800 mg/kg/day po, day 1
[20] = 800 mg/kg/day, 800 mg/kg/day po, day 1, read-out: AUC0-t(last)
[21] = 800 mg/kg/day, 800 mg/kg/day po, day 14
[22] = 800 mg/kg/day, 800 mg/kg/day po, day 14, read-out: AUC0-t(last)

Sequence of hERG (Q12809 whole entry): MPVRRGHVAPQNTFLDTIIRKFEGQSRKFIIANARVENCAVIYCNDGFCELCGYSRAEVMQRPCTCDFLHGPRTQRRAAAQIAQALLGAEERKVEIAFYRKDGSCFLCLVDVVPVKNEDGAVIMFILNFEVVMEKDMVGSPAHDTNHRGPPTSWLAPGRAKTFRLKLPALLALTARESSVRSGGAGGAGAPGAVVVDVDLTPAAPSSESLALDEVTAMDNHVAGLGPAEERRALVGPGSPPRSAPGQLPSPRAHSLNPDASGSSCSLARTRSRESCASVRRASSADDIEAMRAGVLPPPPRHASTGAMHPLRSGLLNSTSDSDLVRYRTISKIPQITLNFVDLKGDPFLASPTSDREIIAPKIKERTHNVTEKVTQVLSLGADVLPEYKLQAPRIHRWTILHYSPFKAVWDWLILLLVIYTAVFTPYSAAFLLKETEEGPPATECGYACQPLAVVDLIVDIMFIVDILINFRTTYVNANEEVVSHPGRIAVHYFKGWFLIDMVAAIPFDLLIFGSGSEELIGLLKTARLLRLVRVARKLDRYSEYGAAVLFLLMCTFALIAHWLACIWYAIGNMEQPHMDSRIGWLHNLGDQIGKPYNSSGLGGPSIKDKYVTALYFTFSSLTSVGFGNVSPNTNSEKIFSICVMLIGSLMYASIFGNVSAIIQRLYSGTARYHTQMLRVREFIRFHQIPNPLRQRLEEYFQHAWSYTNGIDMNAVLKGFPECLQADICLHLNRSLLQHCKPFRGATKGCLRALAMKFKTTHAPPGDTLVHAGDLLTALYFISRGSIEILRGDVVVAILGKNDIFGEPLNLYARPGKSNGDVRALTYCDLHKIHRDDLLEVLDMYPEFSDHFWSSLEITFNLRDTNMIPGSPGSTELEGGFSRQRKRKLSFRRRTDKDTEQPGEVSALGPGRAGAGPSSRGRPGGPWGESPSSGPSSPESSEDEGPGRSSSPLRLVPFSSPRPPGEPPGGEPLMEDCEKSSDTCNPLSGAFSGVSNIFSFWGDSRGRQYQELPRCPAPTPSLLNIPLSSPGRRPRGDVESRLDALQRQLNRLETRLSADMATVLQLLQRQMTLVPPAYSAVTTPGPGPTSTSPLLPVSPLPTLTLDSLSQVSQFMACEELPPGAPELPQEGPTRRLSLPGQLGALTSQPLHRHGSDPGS

Row | SMILES | single electron redox potential [1] [mV] | concentration at 60 min [2, 5] [ng/mL] | concentration at 30 min [2, 6] [ng/g] | concentration at 30 min [2, 7] [ng/mL] | concentration at 60 min [2, 8] [ng/g] | Kp at 5 min ([2]; brain, iv 1 mg/kg, 5 min) | Kp at 30 min ([2]; brain, iv 1 mg/kg, 30 min) | Kp at 30 min ([2]; brain, po 25 mg/kg, 30 min) | Kp at 60 min ([2]; brain, po 25 mg/kg, 60 min) | Brain concentration [2, 9] [ng/g] | Brain concentration [2, 10] [ng/g] | IC50 [3] | Cmax [4, 11] [ng/mL] | Tmax [4, 11] [h] | AUC(0-t) [4, 12] [µg·h/mL] | Cmax [4, 13] [ng/mL] | Tmax [4, 13] [h] | AUC(0-t) [4, 14] [µg·h/mL] | Cmax [4, 15] [ng/mL] | Tmax [4, 15] [h] | also measured
1 | Cn1c([N+](=O)[O-])cnc1COc1ccc([S+](C)[O-])cc1 (stereo not drawn) [Fexinidazole sulfoxide] | −493 | 1620 | 3310 | 1100 | 4870 | 0.045 | 0.064 | 0.078 | 0.12 | 3315 ± 1611 | 4873 ± 2335 | 0.18 µg/mL to 0.36 µg/mL and 610 nM to 1.22 µM | 3760 ± 970 | 1.17 ± 0.41 | 19.6 ± 5.68 | 2990 ± 980 | 1.33 ± 0.52 | 13.6 ± 5.99 | 8120 ± 2660 | 1.25 ± 0.61 | concentration at 5 min ([2]; brain homogenate, intravenous, 1 mg/kg, fexinidazole 1 mg/kg iv, 5 min, read-out: Brain homogenate concentration): 39.9 ng/mL; concentration at 30 min ([2]; brain homogenate, intravenous, 1 mg/kg, fexinidazole 1 mg/kg iv, 30 min, read-out: Brain homogenate concentration): 57.6 ng/mL; concentration at 5 min ([2]; brain, intravenous, 1 mg/kg, fexinidazole 1 mg/kg iv, 5 min, read-out: Brain concentration): 120 ng/g; concentration at 30 min ([2]; brain, intravenous, 1 mg/kg, fexinidazole 1 mg/kg iv, 30 min, read-out: Brain concentration): 173 ng/g; AUC(0-t) [4, 16]: 51.4 ± 14.1 µg·h/mL; Cmax [4, 17]: 8990 ± 2830 ng/mL; Tmax [4, 17]: 2 h; AUC(0-t) [4, 18]: 56.7 ± 16.6 µg·h/mL; Cmax [4, 19]: 14500 ± 3950 ng/mL; Tmax [4, 19]: 1.55 ± 0.6 h; AUC(0-t) [4, 20]: 112 ± 31.8 µg·h/mL; Cmax [4, 21]: 13600 ± 4090 ng/mL; Tmax [4, 21]: 1.6 ± 0.97 h; AUC(0-t) [4, 22]: 129 ± 39.8 µg·h/mL; Residual Current (% of control) (hERG; 1 µM): 87.06±0.92%; Residual Current (% of control) (hERG; 5 µM): 101.39±8.64%; Residual Current (% of control) (hERG; 30 µM): 98.04±1.52%; effect on hERG peak tail current (hERG; 1, 5 and 30 µM): judged not to affect hERG peak tail current
2 | Cn1c([N+](=O)[O-])cnc1COc1ccc(S(C)(=O)=O)cc1 [Fexinidazole sulfone] | −488 | 394 | 468 | 156 | 1180 | 0 | 0 | 0.05 | 0.06 | 469 ± 222 | 1183 ± 322 | 0.16 µg/mL to 0.39 µg/mL and 480 nM to 1.25 µM | 8580 ± 2150 | 7.33 ± 1.63 | 146 ± 38.3 | 7780 ± 2890 | 5.33 ± 2.07 | 126 ± 59.1 | 17600 ± 2460 | 12.7 ± 8.91 | Brain homogenate concentration ([2]; fexinidazole 1 mg/kg iv, 5 min): BLQ; Brain homogenate concentration ([2]; fexinidazole 1 mg/kg iv, 30 min): BLQ; AUC(0-t) [4, 16]: 348 ± 63.9 µg·h/mL; Cmax [4, 17]: 21800 ± 3860 ng/mL; Tmax [4, 17]: 5.33 ± 2.07 h; AUC(0-t) [4, 18]: 384 ± 49.9 µg·h/mL; Cmax [4, 19]: 36100 ± 7940 ng/mL; Tmax [4, 19]: 14.4 ± 8.26 h; AUC(0-t) [4, 20]: 660 ± 164 µg·h/mL; Cmax [4, 21]: 36600 ± 6240 ng/mL; Tmax [4, 21]: 6.8 ± 1.93 h; AUC(0-t) [4, 22]: 653 ± 118 µg·h/mL; Residual Current (% of control) (hERG; 1 µM): 96.16±8.15%; Residual Current (% of control) (hERG; 5 µM): 90.76±3.84%; decrease on hERG peak tail current (hERG; 30 µM, 9.34 µg/mL): 33%; Residual Current (% of control) (hERG; 30 µM): 67.41±2.24%; effect on hERG peak tail current (hERG; 1 or 5 µM): no effect
